These results are taken from ChEMBL document CHEMBL4609995, “Rational design, synthesis and biological profiling of new KDM4C inhibitors” (Bioorg Med Chem, 2020).

pIC50: −log10 of the molar value. Where only a bound is given, the exact number is not on record here.

As a reminder, the pIC50 is the negative decadic logarithm of the IC50, by convention in mol/L. The efflux ratio is a quotient of directional permeabilities that is used to spot active efflux. As a reminder, the inhibition is how much of the control response was suppressed. Lower therefore signals little suppression.

Data set [1] deals with T1, Lysine-specific demethylase 4C (Homo sapiens, UniProt Q9H3R0).
T1 sequence (Q9H3R0 whole entry): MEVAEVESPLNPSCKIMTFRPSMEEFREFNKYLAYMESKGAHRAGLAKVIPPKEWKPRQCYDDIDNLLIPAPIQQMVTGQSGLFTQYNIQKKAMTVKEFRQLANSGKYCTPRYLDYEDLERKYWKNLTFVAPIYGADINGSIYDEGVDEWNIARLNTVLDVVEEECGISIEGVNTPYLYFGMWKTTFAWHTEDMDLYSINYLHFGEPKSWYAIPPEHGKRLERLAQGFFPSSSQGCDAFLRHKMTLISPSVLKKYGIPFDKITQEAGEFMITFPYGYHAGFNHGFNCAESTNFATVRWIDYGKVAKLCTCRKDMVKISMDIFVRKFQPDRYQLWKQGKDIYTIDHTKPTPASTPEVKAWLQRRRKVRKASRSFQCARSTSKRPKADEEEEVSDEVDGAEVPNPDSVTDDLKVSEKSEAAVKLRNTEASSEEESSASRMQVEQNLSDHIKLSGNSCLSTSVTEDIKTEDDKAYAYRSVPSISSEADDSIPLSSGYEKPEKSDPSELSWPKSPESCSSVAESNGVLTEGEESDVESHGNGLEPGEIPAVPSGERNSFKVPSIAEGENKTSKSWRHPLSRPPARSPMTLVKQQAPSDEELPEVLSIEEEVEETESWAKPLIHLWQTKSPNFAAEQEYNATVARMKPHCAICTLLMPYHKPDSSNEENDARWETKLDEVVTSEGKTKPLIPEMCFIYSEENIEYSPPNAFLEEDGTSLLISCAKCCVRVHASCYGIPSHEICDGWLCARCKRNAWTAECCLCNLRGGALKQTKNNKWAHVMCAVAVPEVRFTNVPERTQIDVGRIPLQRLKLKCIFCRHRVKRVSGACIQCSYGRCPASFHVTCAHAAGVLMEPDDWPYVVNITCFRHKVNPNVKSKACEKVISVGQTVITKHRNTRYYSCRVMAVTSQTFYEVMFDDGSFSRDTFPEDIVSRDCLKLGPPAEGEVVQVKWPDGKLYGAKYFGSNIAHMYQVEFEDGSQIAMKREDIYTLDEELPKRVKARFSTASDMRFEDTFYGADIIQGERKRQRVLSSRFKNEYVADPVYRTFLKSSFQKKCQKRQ
Briefly: Inhibition of KDM4C (unknown origin) using methylated H3 peptide as substrate by chemiluminescence assay. The following applies: for pIC50: read-out: IC50.

A short description of data set [2]: Substrate activity at P-gp in MDCK2-MDR1 cells at 10 uM incubated for 60 mins in presence or absence of 2 uM P-gp inhibitor elacridar by LC-MS/MS analysis. The format is ADME, cell-based, Canis lupus familiaris. The following applies: dog, mdck-mdr1, 1 h.
The test system of another data set is HepG2. As to the kind of experiment: Antiproliferative activity against human HepG2 cells assessed as reduction in cell growth measured after 24 hrs by MTS assay. The format is functional, cell-based. The note with it: HepG2, 24 h. (In general: Tetrazolium dyes change colour on reduction, which living cells bring about.)
The test system of another data set is A549. Briefly: Antiproliferative activity against human A549 cells assessed as reduction in cell growth measured after 72 hrs by Alamar blue assay. The class given is functional, cell-based. The note with it: A549, 72 h. (In general: Alamar Blue is a resazurin reagent that responds to reducing activity.)
For data set [3], the system named is P-gp. Briefly: Permeability across apical to basolateral side in MDCK2-MDR1 cells at 10 uM incubated for 60 mins in presence 2 uM P-gp inhibitor elacridar by LC-MS/MS analysis. The note with it: dog, MDCK-MDR1, with elacridar 2 uM; read-out: permeability. The class given is ADME, cell-based, Canis lupus familiaris.
Data set [4] can be described thus: Intrinsic clearance in mouse liver microsomes assessed per mg protein at 1 uM measured up to 60 mins in presence or absence of NADPH by LC-MS/MS analysis. The format is ADME, Microsome. The following applies: for microsomal CLint at 1 µM: liver microsomes, read-out: CLH. In general terms: Liver microsomes are a subcellular fraction often used to study metabolism.

The subject of data set [5] is P-gp. Briefly: Efflux ratio of permeability from basolateral to apical over apical to basolateral side in MDCK2-MDR1 cells MDCK2-MDR1 cells at 10 uM incubated for 60 mins in presence 2 uM P-gp inhibitor elacridar by LC-MS/MS analysis. The format is ADME, cell-based, Canis lupus familiaris. The following applies: dog, MDCK-MDR1, with elacridar 2 uM.
Data set [6] addresses T2, Lysine-specific demethylase 4C (Homo sapiens) (UniProt Q9H3R0).
T2 sequence (whole entry): T1 sequence (Q9H3R0 whole entry)
Briefly: Inhibition of KDM4C (unknown origin) at 10 uM using methylated H3 peptide as substrate by chemiluminescence assay relative to control.

Data set [7] can be described thus: Electrochemical behavior of the compound assessed as reduction in redox potential. The class given is physicochemical.

As to `Cn1nc(-c2ccc(O)cc2)nc2c(=O)n(C)c(=O)nc1-2`, the pIC50 was 6.62 in data set [1], 5.96 in the data set with HepG2 and 5.24 in the data set with A549. Further, the Activity entry in data set [2] is “Not Active”. Moreover, the Papp A→B at 1 h, 10 µM with P-gp [3] worked out at 13.2 ×10⁻⁶ cm/s. Also, the microsomal CLint at 1 µM in data set [4] is less than 12.5 µL/min/mg. For the same molecule, the efflux ratio at 1 h, 10 µM in the data set with P-gp [5] was less than 2.
As to `CN(C)c1ccccc1-c1nc2c(=O)n(C)c(=O)nc-2n(C)n1`, the figures for the pIC50 (in data set [1]; in the data set with HepG2; in the data set with A549) were 7.80, 5.68 and 5.24, respectively. Further, in data set [2], the Activity result is on record as “Not Active”. The Papp A→B at 1 h, 10 µM with P-gp [3] worked out at 18 ×10⁻⁶ cm/s. In data set [4], the microsomal CLint at 1 µM was less than 12.5 µL/min/mg. Besides, the efflux ratio at 1 h, 10 µM with P-gp [5] was less than 2.
Turning to `Cn1nc(-c2ccc(C#N)cc2)nc2c(=O)n(C)c(=O)nc1-2`, the pIC50 is 7.96 in [1], 6.10 in the data set with HepG2 and 5.72 with A549. Further, the Activity result in data set [2] is “Not Active”. In addition, the Papp A→B at 1 h, 10 µM in the data set with P-gp [3] worked out at 26.8 ×10⁻⁶ cm/s. Further, the microsomal CLint at 1 µM in data set [4] is less than 12.5 µL/min/mg. Further, the efflux ratio at 1 h, 10 µM in the data set on P-gp [5] was less than 2.
Consider `CN(/N=C/c1ccc(O)cc1)c1cc(=O)n(C)c(=O)[nH]1`, for which the inhibition in data set [6] lay in the range of 40 to 70%.
Regarding `Cn1c(=O)[nH]c2ccc(-c3ccccc3)cc2c1=O`, the values for the pIC50 (in data set [1]; in the data set on HepG2; with A549) were less than 5.00, less than 4.60 and less than 4.52, respectively. Further, in data set [2], the Activity result is given as “Not Active”. The Papp A→B at 1 h, 10 µM with P-gp [3] came out at 27.3 ×10⁻⁶ cm/s. Besides, the microsomal CLint at 1 µM in [4] turned out to be 229 µL/min/mg. In the data set on P-gp [5], the efflux ratio at 1 h, 10 µM is less than 2.
Turning to `Cn1nc(-c2ccc(S(N)(=O)=O)cc2)nc2c(=O)n(C)c(=O)nc1-2`, the pIC50 was 7.38 in data set [1], 5.25 in the data set with HepG2 and less than 4.52 in the data set on A549. Further, the Activity result in [2] is recorded as “Not Active”. The Papp A→B at 1 h, 10 µM in the data set on P-gp [3] worked out at 0.8 ×10⁻⁶ cm/s. Further, in data set [4], the microsomal CLint at 1 µM is less than 12.5 µL/min/mg. Further, in the data set on P-gp [5], the efflux ratio at 1 h, 10 µM was less than 2.
In data set [6], `CN(/N=C/c1ccc(F)cc1)c1cc(=O)n(C)c(=O)[nH]1` gave an inhibition of more than 70%.
Regarding `Cn1nc(-c2ccc(F)cc2)nc2c(=O)n(C)c(=O)nc1-2`, the results for the pIC50 (in data set [1]; in the data set on HepG2; in the data set on A549) were 7.09, 6.09 and 5.80, respectively. In addition, the Activity result in data set [2] is on record as “Not Active”. Further, the Papp A→B at 1 h, 10 µM with P-gp [3] stood at 30.6 ×10⁻⁶ cm/s. Also, in [4], the microsomal CLint at 1 µM is less than 12.5 µL/min/mg. In the data set on P-gp [5], the efflux ratio at 1 h, 10 µM was less than 2.
With `COc1ccc(/C=N/N(C)c2cc(=O)n(C)c(=O)[nH]2)cc1`, in data set [6], the inhibition was 40 to 70%.
Consider `Cn1nc(-c2ccccc2)nc2n(C)c(=O)nc1-2`, for which the pIC50 in [1] is 4.90; with HepG2, less than 4.60; in the data set with A549 it was less than 4.52. Besides, the Activity entry in [2] was “Not Active”. The Papp A→B at 1 h, 10 µM with P-gp [3] was determined as 40.6 ×10⁻⁶ cm/s. For the same molecule, the microsomal CLint at 1 µM in [4] was found to be 13.1 µL/min/mg. For the same molecule, in the data set on P-gp [5], the efflux ratio at 1 h, 10 µM is less than 2.
For `Cn1nc(-c2ccncc2)nc2c(=O)n(C)c(=O)nc1-2`, the pIC50 in data set [1] is 7.72; in the data set with HepG2 it was 5.74; with A549 it was 5.37. Also, the Activity entry in data set [2] was “Not Active”. Further, the Papp A→B at 1 h, 10 µM in the data set with P-gp [3] came out at 13.4 ×10⁻⁶ cm/s. Further, the microsomal CLint at 1 µM in data set [4] came out at 11.6 µL/min/mg. The efflux ratio at 1 h, 10 µM in the data set on P-gp [5] is less than 2.
In the case of `COC(=O)C1(c2ccc(-c3nc4c(=O)n(C)c(=O)nc-4n(C)n3)cc2)CC1`, in data set [1], the IC50 entry is given as “Not Active”. Besides, the Activity result in [2] is “Not Active”. For the same molecule, the pIC50 in the data set on HepG2 is 5.92; in the data set on A549, 5.89. For the same molecule, in the data set on P-gp [3], the Papp A→B at 1 h, 10 µM came out at 24.9 ×10⁻⁶ cm/s. The microsomal CLint at 1 µM in [4] is less than 12.5 µL/min/mg. Moreover, the efflux ratio at 1 h, 10 µM in the data set with P-gp [5] is less than 2.
In the case of `COc1ccc(-c2nc3c(=O)n(C)c(=O)nc-3n(C)n2)cc1`, the pIC50 in [1] is 8.10; in the data set with HepG2, 6.10; with A549, 5.96. For the same molecule, in data set [2], the Activity result is “Not Active”. Moreover, the Papp A→B at 1 h, 10 µM with P-gp [3] was 34.5 ×10⁻⁶ cm/s. Besides, the microsomal CLint at 1 µM in [4] was less than 12.5 µL/min/mg. In the data set on P-gp [5], the efflux ratio at 1 h, 10 µM was less than 2.
For `Cn1nc(-c2ccccc2)nc2c(=O)n(C)c(=O)nc1-2`, the results for the pIC50 (in data set [1]; with HepG2; in the data set with A549) were 6.89, 6.06 and 5.96, respectively. For the same molecule, the Activity result in data set [2] is listed as “Not Active”. Besides, in the data set on P-gp [3], the Papp A→B at 1 h, 10 µM came to 34.7 ×10⁻⁶ cm/s. Also, in data set [4], the microsomal CLint at 1 µM is less than 12.5 µL/min/mg. Also, the efflux ratio at 1 h, 10 µM in the data set with P-gp [5] was less than 2.
In the case of `CN(C)c1ccccc1/C=N/N(C)c1cc(=O)n(C)c(=O)[nH]1`, the inhibition in data set [6] was in the range of 40 to 70%.
On to `Cn1nc(Cc2ccccc2)nc2c(=O)n(C)c(=O)nc1-2`, for which the pIC50 in data set [1] is 7.54; in the data set on HepG2, 5.29; in the data set with A549, less than 4.52. Also, the Activity result in data set [2] is given as “Not Active”. Further, in the data set with P-gp [3], the Papp A→B at 1 h, 10 µM came to 25.3 ×10⁻⁶ cm/s. The microsomal CLint at 1 µM in data set [4] is less than 12.5 µL/min/mg. The efflux ratio at 1 h, 10 µM with P-gp [5] was less than 2.
As for `Cn1nc(-c2ccn(C)c(=O)c2)nc2c(=O)n(C)c(=O)nc1-2`, the IC50 result in [1] is “Not Active”. Moreover, in data set [2], the result was Active. The pIC50 in the data set on HepG2 was 5.35; in the data set on A549 it was 5.06. In addition, the Papp A→B at 1 h, 10 µM in the data set on P-gp [3] stood at 1.1 ×10⁻⁶ cm/s. Also, in data set [4] (microsomes, 1 h, 1 µM), the CLint is 71.8 µL/min/mg. For the same molecule, the efflux ratio at 1 h, 10 µM with P-gp [5] was less than 2.
With `Cn1c(=O)nc2[nH]nc(-c3ccccc3)nc-2c1=O`, the negative logarithm of the IC50 (pIC50) was 5.12 in data set [1], less than 4.60 in the data set with HepG2 and less than 4.52 in the data set with A549. For the same molecule, in data set [2], the Activity result is on record as “Not Active”. Further, in the data set on P-gp [3], the Papp A→B at 1 h, 10 µM worked out at 35.5 ×10⁻⁶ cm/s. Also, the microsomal CLint at 1 µM in data set [4] was less than 12.5 µL/min/mg. Besides, in the data set on P-gp [5], the efflux ratio at 1 h, 10 µM was less than 2.
For the molecule `CN(/N=C/c1ccccc1)c1cc(=O)n(C)c(=O)[nH]1`, in data set [6], the inhibition is more than 70%. The result in data set [7] was Active.
